Laboratory results from patent US7101841B2, “Carbohydrate-specific peptides which have a strong affinity and preparations method thereof” (Korea Institute of Science and Technology, priority 2001, dated 2006).

Assays:
sLeX [1] = test: Peptide phage library biopanning against sLeX-BSA; format: binding; details: after three rounds of biopanning
Experimental: As described above, in order to obtain molecules having strong binding capacity to carbohydrates using repetitive structure of peptide, sialyl Lewis X (sLeX) existing in tumor cells or inflammation response cells was selected as a target, and a peptide binding to the sLeX well was selected by using peptide phage library and biopanning method. Particularly, sLeX-BSA(Oxford Glycoscience) was added into 0.1 M NaHCO3(pH 8.6) buffer solution until the concentration reached to 100 μg/ml. 150 μl of the above solution(sLeX-BSA 0.1 M NaHCO3) was loaded into one well of 96-well plate, and 150 μl of BSA 0.1 M NaHCO3(pH 8.6) was also loaded into the other well. The well plate was shaken to soak completely, and left for overnight at 4° C. The solution in 96-well plate was washed, followed by adding 200 μl of blocking solution(0.1 M ethanol amine, 0.1 M NaHCO3, pH 8.6) into the wells, and then the plate was left for overnight at 4° C. After blocking solution was removed from the 96-well plate, the plate was washed with 200 μl of TBS-T(50 mM Tris-HCl, pH 7.5, 150 mM NaCl, 0.1% [v/v] Tween-20). […]
180 μl of extraction solution was loaded into 3 ml of ER2537 culture solution(OD600=0.2–0.3) and cultured for 4.5 hours at 37° C. while shaking with 250 rpm. […] The amplified phage obtained above was diluted with various concentrations, and the proper concentration was calculated as follows. […]

sLeX [2] = test: BIAcore measurement of binding capacity of peptides on sLeX-BSA fixed CM5 chip
Experimental: To measure the binding capacity of peptides, BIAcore was used. CM5 made by gold and protruded with CM-dextran layer and carboxylic acid group was used as a chip. BSA (Oxford Glyco Science, USA) binding with sLeX was used as a ligand for fixing.
At first, chip surface was stabilized with 100 mM HEPES buffer solution (pH 8.0), and activated with the mixture of 0.4 M EDC (1-ethyl-3-[3′-dimethylaminopropyl]carbodiimide) and 0.1 M NHS (N-hydroxysuccunimide). And then, sodium acetate buffer(10 mM, pH 4.0) containing 0.05 mg/ml of sLeX-BSA or BSA was injected and fixed onto the surface of CM5 chip until the value of RU reached to 6,000. Chip surface remaining active state was substituted with 1.0 M ethanolamine. Target molecules were bound to CM5 chip, and binding buffer (0.01 M HEPES, […], 3 mM EDTA, 0.005% polysorbate 20, pH 7.4) was flowed on the chip surface for equilibration, and finally, bindng capacity was determined by flowing binding buffer containing peptides according to the concentrations. At that time, peptides were combined with their targets with different speed and slope according to the affinity of peptides and target molecules and the affinity between target molecules was measured from the each result. […]

| Substance | binding capacity to sLeX relative to other selected peptides (sLeX [1]) | Kd (sLeX [2]; BIAcore, sLeX-BSA fixed on CM5 chip, read-out: Kp against sLeX) [mM] | strength of binding converted into the height of sensorgram (sLeX [2]; peptide flowed at 62.5 μM, sLeX-BSA fixed chip, FIG. 1) [RU] |
| --- | --- | --- | --- |
| peptide represented by the SEQ. ID NO.1: peptide composed of 12 amino acids selected by phage display for binding to sLeX (AHWIPRYSSPAT; synthetic peptide which have a strong affinity to carbohydrate) | better than that of the other peptides |  |  |
| AHWIPRYSSPAT [monomer] |  | 25.4 | 16 |
